Structures can show the parent of a compound that is named as a salt. Where two headings read alike, the source gives them in different places.
Assays:
Assay in all cases: AK assay 384-well format, Prestwick library screening
[1] = test system: E. cloacae; type: cell-based, Enterobacter cloacae; conditions: 50 μM final drug concentration; for fold induction at 50 µM: Enterobacter cloacae, 3 h
[2] = test system: P. aeruginosa; type: cell-based, Pseudomonas aeruginosa; conditions: 50 μM final drug concentration; for fold induction at 50 µM: Pseudomonas aeruginosa, 3 h
[3] = test system: A. baumannii strain 98-37-09; type: cell-based, Acinetobacter baumannii; conditions: 50 μM final drug concentration; for fold induction at 50 µM: Acinetobacter baumannii, 983709, 3 h
[4] = test system: E. coli; type: cell-based, Escherichia coli; conditions: 50 μM final drug concentration; for fold induction at 50 µM: Escherichia coli, 3 h
[5] = test system: S. aureus strain USA300-0114; type: cell-based, Staphylococcus aureus; conditions: 50 μM final drug concentration; for fold induction at 50 µM: Staphylococcus aureus, USA300, 3 h
[6] = test system: K. pneumoniae; type: cell-based, Klebsiella pneumoniae; conditions: 50 μM final drug concentration; for fold induction at 50 µM: Klebsiella pneumoniae, 3 h
[7] = test system: E. faecium; type: cell-based, Enterococcus faecium; conditions: 50 μM final drug concentration; for fold induction at 50 µM: Enterococcus faecium, 3 h
[8] = planktonic, cutoff for positive 3-fold increase, read-out: AK-based Prestwick Library Screening Results, E. cloacae (fold increase in extracellular AK activity)
[9] = planktonic, cutoff for positive 3-fold increase, read-out: AK-based Prestwick Library Screening Results, P. aeruginosa (fold increase in extracellular AK activity)
[10] = planktonic, cutoff for positive 3-fold increase, read-out: AK-based Prestwick Library Screening Results, A. baumannii (fold increase in extracellular AK activity)
[11] = planktonic, cutoff for positive 3-fold increase, read-out: AK-based Prestwick Library Screening Results, E. coli (fold increase in extracellular AK activity)
[12] = planktonic, cutoff for positive 3-fold increase, read-out: AK-based Prestwick Library Screening Results, S. aureus (fold increase in extracellular AK activity)
[13] = planktonic, cutoff for positive 3-fold increase, read-out: AK-based Prestwick Library Screening Results, K. pneumoniae (fold increase in extracellular AK activity)
[14] = planktonic, cutoff for positive 3-fold increase, read-out: AK-based Prestwick Library Screening Results, E. faecium (fold increase in extracellular AK activity)
[15] = planktonic E. cloacae, 384-well, cutoff for positive-scoring molecules 3-fold increase, read-out: AK-based Prestwick Library Screening Results: E. cloacae (increase in extracellular AK activity)
[16] = planktonic P. aeruginosa, 384-well, cutoff for positive-scoring molecules 3-fold increase, read-out: AK-based Prestwick Library Screening Results: P. aeruginosa (increase in extracellular AK activity)
[17] = planktonic A. baumannii, 384-well, cutoff for positive-scoring molecules 3-fold increase, read-out: AK-based Prestwick Library Screening Results: A. baumannii (increase in extracellular AK activity)
[18] = planktonic E. coli, 384-well, cutoff for positive-scoring molecules 3-fold increase, read-out: AK-based Prestwick Library Screening Results: E. coli (increase in extracellular AK activity)
[19] = planktonic S. aureus, 384-well, cutoff for positive-scoring molecules 3-fold increase, read-out: AK-based Prestwick Library Screening Results: S. aureus (increase in extracellular AK activity)
[20] = planktonic K. pneumoniae, 384-well, cutoff for positive-scoring molecules 3-fold increase, read-out: AK-based Prestwick Library Screening Results: K. pneumoniae (increase in extracellular AK activity)
[21] = planktonic E. faecium, 384-well, cutoff for positive-scoring molecules 3-fold increase, read-out: AK-based Prestwick Library Screening Results: E. faecium (increase in extracellular AK activity)

CN1[C@@H](CC(=O)c2ccccc2)CCC[C@H]1C[C@H](O)c1ccccc1.Cl [Lobeline alpha (−) hydrochoride]
AK-based Prestwick Library Screening Results, E. cloacae (increase in extracellular AK activity) ([1]; planktonic E. cloacae, […]): 1.0
AK-based Prestwick Library Screening Results, P. aeruginosa (increase in extracellular AK activity) ([2]; planktonic P. aeruginosa, […]): 0.9
AK-based Prestwick Library Screening Results, A. baumannii (increase in extracellular AK activity) ([3]; planktonic A. baumannii, […]): 0.8
AK-based Prestwick Library Screening Results, E. coli (increase in extracellular AK activity) ([4]; planktonic E. coli, […]): 1.0
AK-based Prestwick Library Screening Results, S. aureus (increase in extracellular AK activity) ([5]; planktonic S. aureus, […]): 0.8
AK-based Prestwick Library Screening Results, K. pneumoniae (increase in extracellular AK activity) ([6]; planktonic K. pneumoniae, […]): 0.7
AK-based Prestwick Library Screening Results, E. faecium (increase in extracellular AK activity) ([7]; planktonic E. faecium, […]): 0.9

CN1[C@@H]2CC[C@H]1C[C@@H](OC(=O)c1c[nH]c3ccccc13)C2 [Tropisetron HCl]
fold induction at 50 µM [1, 8]: 1.3
fold induction at 50 µM [2, 9]: 1.1
fold induction at 50 µM [3, 10]: 1.3
fold induction at 50 µM [4, 11]: 1.1
fold induction at 50 µM [5, 12]: 0.9
fold induction at 50 µM [6, 13]: 0.8
fold induction at 50 µM [7, 14]: 1

Clc1ccc(CCC(Cn2ccnc2)Sc2c(Cl)cccc2Cl)cc1 (stereo not drawn) [Butoconazole nitrate]
fold induction at 50 µM [1, 15]: 0.5
fold induction at 50 µM [2, 16]: 0.5
fold induction at 50 µM [3, 17]: 2
fold induction at 50 µM [4, 18]: 0.7
fold induction at 50 µM [5, 19]: 0.6
fold induction at 50 µM [6, 20]: 0.7
fold induction at 50 µM [7, 21]: 3.3

CC(C)(C)NCC(O)c1cc(Cl)c(N)c(Cl)c1 (stereo not drawn) [Clenbuterol hydrochloride]
fold induction at 50 µM ([1]; planktonic E. cloacae, […], read-out: AK-based Prestwick Library Screening Results, E. cloacae (increase in extracellular AK activity)): 0.9
fold induction at 50 µM ([2]; planktonic P. aeruginosa, […], read-out: AK-based Prestwick Library Screening Results, P. aeruginosa (increase in extracellular AK activity)): 0.8
fold induction at 50 µM ([3]; planktonic A. baumannii, […], read-out: AK-based Prestwick Library Screening Results, A. baumannii (increase in extracellular AK activity)): 0.8
fold induction at 50 µM ([4]; planktonic E. coli, […], read-out: AK-based Prestwick Library Screening Results, E. coli (increase in extracellular AK activity)): 0.8
fold induction at 50 µM ([5]; planktonic S. aureus, […], read-out: AK-based Prestwick Library Screening Results, S. aureus (increase in extracellular AK activity)): 0.7
fold induction at 50 µM ([6]; planktonic K. pneumoniae, […], read-out: AK-based Prestwick Library Screening Results, K. pneumoniae (increase in extracellular AK activity)): 0.7
fold induction at 50 µM ([7]; planktonic E. faecium, […], read-out: AK-based Prestwick Library Screening Results, E. faecium (increase in extracellular AK activity)): 0.9

C[C@@H]1NCCc2cc(O)c(O)cc21 [Salsolinol hydrobromide]
fold induction at 50 µM [1, 8]: 1.5
fold induction at 50 µM [2, 9]: 1.1
fold induction at 50 µM [3, 10]: 1.2
fold induction at 50 µM [4, 11]: 1.2
fold induction at 50 µM [5, 12]: 1.1
fold induction at 50 µM [6, 13]: 1.2
fold induction at 50 µM [7, 14]: 1

CNCCC(Oc1ccc(C(F)(F)F)cc1)c1ccccc1 (stereo not drawn) [Fluoxetine hydrochloride]
fold induction at 50 µM ([1]; planktonic E. cloacae, cutoff for positive-scoring molecules 3-fold increase, read-out: AK-based Prestwick Library Screening Results, E. cloacae (increase in extracellular AK activity)): 1.1
fold induction at 50 µM ([2]; planktonic P. aeruginosa, cutoff for positive-scoring molecules 3-fold increase, read-out: AK-based Prestwick Library Screening Results, P. aeruginosa (increase in extracellular AK activity)): 0.9
fold induction at 50 µM ([3]; planktonic A. baumannii, cutoff for positive-scoring molecules 3-fold increase, read-out: AK-based Prestwick Library Screening Results, A. baumannii (increase in extracellular AK activity)): 1
fold induction at 50 µM ([4]; planktonic E. coli, cutoff for positive-scoring molecules 3-fold increase, read-out: AK-based Prestwick Library Screening Results, E. coli (increase in extracellular AK activity)): 1
fold induction at 50 µM ([5]; planktonic S. aureus, cutoff for positive-scoring molecules 3-fold increase, read-out: AK-based Prestwick Library Screening Results, S. aureus (increase in extracellular AK activity)): 1.1
fold induction at 50 µM ([6]; planktonic K. pneumoniae, cutoff for positive-scoring molecules 3-fold increase, read-out: AK-based Prestwick Library Screening Results, K. pneumoniae (increase in extracellular AK activity)): 0.8
fold induction at 50 µM ([7]; planktonic E. faecium, cutoff for positive-scoring molecules 3-fold increase, read-out: AK-based Prestwick Library Screening Results, E. faecium (increase in extracellular AK activity)): 0.9

O=C(OCC(O)CO)c1ccccc1Nc1ccnc2cc(Cl)ccc12 (stereo not drawn) [Glafenine hydrochloride]
fold induction at 50 µM ([1]; planktonic E. cloacae, 384-well, […], read-out: AK-based Prestwick Library Screening Results: E. cloacae (increase in extracellular AK activity)): 1.5
fold induction at 50 µM ([2]; planktonic P. aeruginosa, 384-well, […], read-out: AK-based Prestwick Library Screening Results: P. aeruginosa (increase in extracellular AK activity)): 1.2
fold induction at 50 µM ([3]; planktonic A. baumannii, 384-well, […], read-out: AK-based Prestwick Library Screening Results: A. baumannii (increase in extracellular AK activity)): 1.1
fold induction at 50 µM ([4]; planktonic E. coli, 384-well, […], read-out: AK-based Prestwick Library Screening Results: E. coli (increase in extracellular AK activity)): 1.2
fold induction at 50 µM ([5]; planktonic S. aureus, 384-well, […], read-out: AK-based Prestwick Library Screening Results: S. aureus (increase in extracellular AK activity)): 1.1
fold induction at 50 µM ([6]; planktonic K. pneumoniae, 384-well, […], read-out: AK-based Prestwick Library Screening Results: K. pneumoniae (increase in extracellular AK activity)): 1
fold induction at 50 µM ([7]; planktonic E. faecium, 384-well, […], read-out: AK-based Prestwick Library Screening Results: E. faecium (increase in extracellular AK activity)): 1.1

CN(C)CCn1nnnc1SCC1=C(C(=O)O)N2C(=O)[C@@H](NC(=O)Cc3csc(N)n3)[C@H]2SC1 [Cefotiam hydrochloride]
fold induction at 50 µM [1, 15]: 15.6
fold induction at 50 µM [2, 16]: 0.6
fold induction at 50 µM [3, 17]: 0.9
fold induction at 50 µM [4, 18]: 23.9
fold induction at 50 µM [5, 19]: 2.3
fold induction at 50 µM [6, 20]: 7.8
fold induction at 50 µM [7, 21]: 0.9

NC[C@@H]1O[C@H](O[C@H]2[C@@H](O)[C@H](O[C@@H]3[C@@H](O)[C@H](N)C[C@H](N)[C@H]3O[C@H]3O[C@H](CN)[C@@H](O)[C@H](O)[C@H]3N)O[C@@H]2CO)[C@H](N)[C@@H](O)[C@@H]1O.O=S(=O)(O)O [Neomycin sulfate]
AK-based Prestwick Library Screening Results: E. cloacae (increase in extracellular AK activity) ([1]; planktonic E. cloacae, 384-well, cutoff for positive-scoring molecules 3-fold increase): 1.3
AK-based Prestwick Library Screening Results: P. aeruginosa (increase in extracellular AK activity) ([2]; planktonic P. aeruginosa, 384-well, cutoff for positive-scoring molecules 3-fold increase): 0.9
AK-based Prestwick Library Screening Results: A. baumannii (increase in extracellular AK activity) ([3]; planktonic A. baumannii, 384-well, cutoff for positive-scoring molecules 3-fold increase): 1.4
AK-based Prestwick Library Screening Results: E. coli (increase in extracellular AK activity) ([4]; planktonic E. coli, 384-well, cutoff for positive-scoring molecules 3-fold increase): 1.2
AK-based Prestwick Library Screening Results: S. aureus (increase in extracellular AK activity) ([5]; planktonic S. aureus, 384-well, cutoff for positive-scoring molecules 3-fold increase): 1.1
AK-based Prestwick Library Screening Results: K. pneumoniae (increase in extracellular AK activity) ([6]; planktonic K. pneumoniae, 384-well, cutoff for positive-scoring molecules 3-fold increase): 1.0
AK-based Prestwick Library Screening Results: E. faecium (increase in extracellular AK activity) ([7]; planktonic E. faecium, 384-well, cutoff for positive-scoring molecules 3-fold increase): 1.0
